Structures are written as SMILES.

In ChEMBL document CHEMBL5154643, “Design of a "Two-in-One" Mutant-Selective Epidermal Growth Factor Receptor Inhibitor That Spans the Orthosteric and Allosteric Sites” (J Med Chem, 2022) one finds Papp data, which are given here for two compounds.

A short description of the series: Apparent permeability across apical to basolateral side in human Caco-2 cells monolayer. It is filed as ADME, cell-based. For orientation: Caco-2 cells form a polarised layer with tight junctions and transporters.

On to `CSc1nc(-c2cccc(NC(=O)c3c(F)ccc(O)c3CN3C(=O)c4ccccc4C3=O)c2)c(-c2ccnc(NC(C)=O)c2)[nH]1`, for which the Papp result was “Impermeable”.
For `C=CC(=O)Nc1ccc(OC)c(Nc2cc(-c3[nH]c(SC)nc3-c3cccc(NC(=O)c4c(F)ccc(O)c4CN4C(=O)c5ccccc5C4=O)c3)ccn2)c1` the value was “Impermeable”.
